{
  "source": "EPA's ToxValDB 9.5 (doi:10.2903/j.efsa.2015.4279)",
  "key": {"Anas platyrhynchos": {"system": "Anas platyrhynchos", "conditions": "acute; oral; unspecified; mortality"}, "Apis mellifera": {"system": "Apis mellifera", "conditions": "acute; oral; unspecified; mortality"}, "Bibionidae": {"system": "Bibionidae", "conditions": "chronic/long-term; duration: 28 days; development"}, "Canidae": {"system": "Canidae", "conditions": "oral, Dog Other, hematological"}, "Colinus virginianus": {"system": "Colinus virginianus", "conditions": "chronic"}, "Daphnia magna": {"system": "Daphnia magna", "conditions": "chronic/long-term; duration: 21 days; reproduction"}, "Folsomia candida": {"system": "Folsomia candida", "conditions": "chronic/long-term"}, "Oncorhynchus mykiss": {"system": "Oncorhynchus mykiss", "conditions": "chronic/long-term; duration: 95 days; growth"}, "Oryctolagus sp.": {"system": "Oryctolagus sp.", "conditions": "reproduction developmental; hematological"}, "Typhlodromus pyri": {"system": "Typhlodromus pyri", "assay": "LR50; higher = less toxic", "conditions": "not reported; mortality"}},
  "data": [
    {"smiles": "O=C(Nc1ccc(F)cc1)c1cccc(Oc2cccc(C(F)(F)F)c2)n1", "note": "[Picolinafen]", "values": [
      {"measurement": "LD50", "setting": "Anas platyrhynchos", "value": "> 2250", "unit": "mg/kg-day"},
      {"measurement": "LD50", "setting": "Apis mellifera", "value": "> 200", "unit": "µg/piece"},
      {"measurement": "NOEC", "setting": "Bibionidae", "value": 0.18, "unit": "mg/L"},
      {"measurement": "NOAEL", "setting": "Canidae; chronic, duration: 1 years", "value": 1.4, "unit": "mg/kg-day"},
      {"measurement": "NOAEL", "setting": "Canidae; subchronic, duration: 90 days", "value": 5.2, "unit": "mg/kg-day"},
      {"measurement": "NOEL", "setting": "Colinus virginianus", "value": 59.5, "unit": "mg/kg-day"},
      {"measurement": "NOEC", "setting": "Daphnia magna", "value": 0.007, "unit": "mg/L"},
      {"measurement": "NOEC", "setting": "Folsomia candida", "value": 250, "unit": "mg/kg"},
      {"measurement": "NOEC", "setting": "Oncorhynchus mykiss", "value": 0.0064, "unit": "mg/L"},
      {"measurement": "NOAEL", "setting": "Oryctolagus sp.", "value": 5, "unit": "mg/kg-day"},
      {"measurement": "LD50", "setting": "Rattus norvegicus; acute, mortality", "value": "> 5000", "unit": "mg/kg-day"},
      {"measurement": "NOAEL", "setting": "Rattus norvegicus; chronic", "value": 4, "unit": "mg/kg-day"},
      {"measurement": "LC50", "setting": "Tagia sp.; acute, duration: 14 days, mortality", "value": "> 500", "unit": "mg/kg"},
      {"measurement": "NOEC", "setting": "Tagia sp.; chronic/long-term, duration: 8 weeks", "value": 1.68, "unit": "mg/kg"},
      {"measurement": "LR50", "setting": "Typhlodromus pyri", "value": "> 100", "unit": "g/ha"}
    ]}
  ]
}
